Experimental findings from patent US11236046B2, “Substituted heterocyclic sulfonamide compounds useful as TRPA1 modulators” (Genentech, Inc., priority 2013, dated 2022) are described below.

Broadly, the IC50 is the point on the concentration scale where inhibition reaches its midpoint.

human TRPA1, sequence (O75762 whole entry): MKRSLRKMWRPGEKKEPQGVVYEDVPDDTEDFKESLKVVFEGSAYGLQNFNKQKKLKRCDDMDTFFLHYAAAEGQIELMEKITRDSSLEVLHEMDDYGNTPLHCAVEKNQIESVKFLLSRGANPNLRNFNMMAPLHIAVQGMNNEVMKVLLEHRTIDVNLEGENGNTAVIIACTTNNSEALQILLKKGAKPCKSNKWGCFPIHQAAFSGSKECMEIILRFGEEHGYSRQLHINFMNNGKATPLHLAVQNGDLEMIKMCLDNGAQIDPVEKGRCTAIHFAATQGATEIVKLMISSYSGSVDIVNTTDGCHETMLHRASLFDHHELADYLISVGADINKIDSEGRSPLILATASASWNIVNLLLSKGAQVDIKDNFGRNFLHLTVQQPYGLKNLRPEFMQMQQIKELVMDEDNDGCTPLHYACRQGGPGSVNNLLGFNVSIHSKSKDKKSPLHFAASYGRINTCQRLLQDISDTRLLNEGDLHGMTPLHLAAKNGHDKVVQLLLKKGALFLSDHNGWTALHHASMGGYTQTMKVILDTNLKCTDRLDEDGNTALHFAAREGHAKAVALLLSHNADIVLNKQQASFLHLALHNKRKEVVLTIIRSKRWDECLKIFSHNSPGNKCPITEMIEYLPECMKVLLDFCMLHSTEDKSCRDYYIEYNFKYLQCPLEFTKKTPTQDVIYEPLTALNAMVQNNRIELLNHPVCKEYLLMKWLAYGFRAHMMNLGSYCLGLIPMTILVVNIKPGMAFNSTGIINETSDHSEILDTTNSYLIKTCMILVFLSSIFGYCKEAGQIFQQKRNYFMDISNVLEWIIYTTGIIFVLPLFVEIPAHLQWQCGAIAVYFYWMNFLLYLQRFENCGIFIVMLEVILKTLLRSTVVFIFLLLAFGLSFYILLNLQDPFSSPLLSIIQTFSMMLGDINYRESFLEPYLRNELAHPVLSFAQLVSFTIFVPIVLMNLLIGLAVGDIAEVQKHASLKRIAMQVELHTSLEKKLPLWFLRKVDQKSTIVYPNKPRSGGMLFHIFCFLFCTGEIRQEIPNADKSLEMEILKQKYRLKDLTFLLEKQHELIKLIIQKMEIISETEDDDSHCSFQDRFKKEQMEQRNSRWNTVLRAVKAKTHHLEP

This experiment addresses human TRPA1 (Homo sapiens (Human), UniProt O75762). In words: FLIPR Tetra calcium influx assay, block of cinnamaldehyde-induced calcium influx in CHO cells expressing TRPA1 (human). The format is cell-based. The following applies: 20 min compound incubation, 75 uM cinnamaldehyde (~EC80), Hill coefficient fixed to 1.5, read-out: hTRPA1 AUC IC50. The protocol: IC50 Determinations of Exemplified Compounds.
IC50s (effective concentration) of compounds on the human and rat TRPA1 channels were determined using a FLIPR Tetra instrument. CHO cells expressing TRPA1 were plated into 384-well plates, incubated overnight at 37C, and loaded with BD calcium indicator dye for 1 hr at 37° C. followed by 15 minutes. at room temperature. The assay buffer was Hank's Balanced Salt Solution (HBSS) containing 20 mM HEPES (pH readjusted to 7.4) along with 0.02% BSA.
Following dye load and plate cool down, compounds were added to the cells using FLIPR Tetra. Plates were then incubated with compounds for 20 minutes at room temperature prior to adding agonist. Following this incubation, ˜EC80 concentration of cinnamaldehyde (75 uM for human TRPA1 and 45 uM for rat TRPA1) was added to active the channels and block of cinnamaldehyde induced calcium influx was measured.
Fixing the Hill coefficient will generally reduce variability of the IC50 determination. The IC50s were individually examined to make sure the MIN and MAX points were set correctly prior to validation of the results.
As for `O=C(NCc1cc(-c2ccc(C(F)(F)F)nc2)ncn1)[C@@H]1C[C@@H](F)CN1S(=O)(=O)c1ccc(F)cc1` [Example 154, (2S,4R)-4-fluoro-1-(4-fluorophenylsulfonyl)-N-((6-(6-(trifluoromethyl)pyridin-3-yl)pyrimidin-4-yl)methyl)pyrrolidine-2-carboxamide], the IC50 came out at 97 nM. In the case of `C[C@@]1(C(=O)NCc2cc(-c3ccc(C(F)(F)F)cc3)ncn2)C[C@@H](F)CN1S(=O)(=O)c1ccc(F)cc1` (single isomer, unassigned) [Example 138], the IC50 was determined as 25 nM. Then `C[C@@]1(C(=O)NCc2cc(-c3ccc(C(F)(F)F)nc3)ncn2)C[C@@H](F)CN1S(=O)(=O)c1ccc(F)cc1` (single isomer, unassigned) [Example 142], with 92 nM; and `O=C(NCc1cc(Cl)nc(-c2ccc(C(F)F)nc2)c1)[C@@H]1C[C@@H](F)CN1S(=O)(=O)c1ccc(F)cc1` [Example 60, (2S,4R)—N-[[2-chloro-6-[6-(difluoromethyl)-3-pyridyl]-4-pyridyl]methyl]-4-fluoro-1-(4-fluorophenyl)sulfonyl-pyrrolidine-2-carboxamide], with 55 nM; and `Nc1nc(C(F)(F)F)ccc1-c1cc(CNC(=O)[C@@H]2C[C@@H](F)CN2S(=O)(=O)c2ccc(F)cc2)ccn1` [Example 178, (2S,4R)—N-[[2-[2-amino-6-(trifluoromethyl)-3-pyridyl]-4-pyridyl]methyl]-4-fluoro-1-(4-fluorophenyl)sulfonyl-pyrrolidine-2-carboxamide], with 175 nM. Then `O=C(NCc1cc(N2CCC(F)(F)CC2)c(F)cn1)[C@@H]1C[C@@H](F)CN1S(=O)(=O)c1ccc(F)cc1` [Example 128, (2S,4R)—N-[[4-(4,4-difluoro-1-piperidyl)-5-fluoro-2-pyridyl]methyl]-4-fluoro-1-(4-fluorophenyl)sulfonyl-pyrrolidine-2-carboxamide], with 404 nM. The same measure for `COc1nn(-c2ccc(C(F)(F)F)cc2)cc1CNC(=O)[C@@H]1C[C@@H](C#N)CN1S(=O)(=O)c1ccc(F)cc1` [Example 110, (2S,4R)-4-cyano-1-[(4-fluorobenzene)sulfonyl]-N-([3-methoxy-1-[4-(trifluoromethyl)phenyl]-1H-pyrazol-4-yl]methyl)pyrrolidine-2-carboxamide]: 165 nM. With `C[C@@]1(C(=O)NCc2cc(-c3ccc(C(F)(F)F)nc3)c(F)cn2)C[C@@H](F)CN1S(=O)(=O)c1ccc(F)cc1` [Example 126, (2S,4R)-4-fluoro-1-(4-fluorophenyl)sulfonyl-N-[[5-fluoro-4-[6-(trifluoromethyl)-3-pyridyl]-2-pyridyl]methyl]-2-methyl-pyrrolidine-2-carboxamide], the IC50 was found to be 25 nM. With `O=C(NCc1cc(-c2ccc(C3CC3)cc2)ncn1)[C@@H]1C[C@@H](F)CN1S(=O)(=O)c1ccc(F)cc1` [Example 155, (2S,4R)—N-((6-(4-cyclopropylphenyl)pyrimidin-4-yl)methyl)-4-fluoro-1-(4-fluorophenylsulfonyl)pyrrolidine-2-carboxamide], the IC50 came out at 134 nM. As for `C[C@@]1(F)C[C@@H](C(=O)NCc2cc(F)cc(-c3cnc(C(F)(F)F)nc3)c2)N(S(=O)(=O)c2ccc(F)cc2)C1` [Example 52, (2S,4R)-4-fluoro-N-(3-fluoro-5-(2-(trifluoromethyl)pyrimidin-5-yl)benzyl)-1-((4-fluorophenyl)sulfonyl)-4-methylpyrrolidine-2-carboxamide], the IC50 turned out to be 16 nM. As to `O=C(NCc1cc(F)cc(-c2ccc(C(F)(F)F)nc2)c1)[C@@H]1C[C@@H](F)CN1S(=O)(=O)c1ccc(F)cc1` [Example 139, (2S,4R)-4-fluoro-1-(4-fluorophenyl)sulfonyl-N-[[3-fluoro-5-[6-(trifluoromethyl)-3-pyridyl]phenyl]methyl]pyrrolidine-2-carboxamide], the IC50 came to 16 nM.
